“Also recorded” adds a separate entry of the source. Like-named read-outs stand apart in the source and are kept apart here.
How the values were obtained:
[1] = test system: pmaxGFP plasmid DNA; test: In vitro DNA cleavage/mobility shift assay (agarose gel electrophoresis); type: biochemical; settings: for Plasmid DNA cleavage in presence of H2O2 (in words): 100 µM of sample, 200 ng plasmid DNA, 10 mM H2O2, 37 °C, 2 h
Protocol: The nuclease activity of the metal complexes was investigated by means of gel electrophoresis after incubating the reaction mixtures (100 µM of sample and 200 ng of plasmid DNA) at 37 °C for 2 h. […] Thus, the assays with the metal complexes were performed in the absence and presence of H2O2 at 10 mM to check whether the DNA cleavage and damage take place through a hydrolytic or an oxidative mechanism.
Studies of the interactions between the metal compounds and plasmid DNA were carried out by agarose gel electrophoresis. Thus, 200 ng of pmaxGFP plasmid, 3527 bps, (Lonza, Basel, Switzerland) were incubated with the metal compounds at 100 μM in the absence or presence of 10 mM of H2O2 in Tris-HCl buffer (NaCl 50 mM, Tris-HCl 5 mM, pH 7.20). The mixture was incubated at 37 °C for 2 h, then the reactions were quenched by adding 5 μL of the loading buffer solution and analyzed by 1% agarose gel electrophoresis.

[2] = test system: Staphylococcus aureus ATCC 25923; test: Microdilution antimicrobial assay (CLSI), S. aureus; type: cell-based; settings: for Antimicrobial activity against S. aureus (in words): up to 100 μM; for Percentage values of microbial growth, S. aureus: compound at 100 μM, mean and standard deviation, 24 h, relative to positive controls; for Microbial growth, S. aureus (Table S1): ligand at 100 μM, mean values and standard deviations
Protocol: (§1) Reference strains of Staphylococcus aureus (ATCC 25923), Escherichia coli (ATCC 25922) and Candida albicans (ATCC 10231) were used in this study as model systems. These laboratory strains were purchased from the American Type Culture Collection (ATCC) (Manassas, VA, USA). […] The antimicrobial properties of the metal complexes were determined by a previously established microdilution method in agreement with the Clinical and Laboratory Standard Institute (CLSI) guidelines. […] The metal complexes were two-fold serially diluted and tested in the range of 100-0.19 μM. Positive controls (in regular media), negative controls (only compounds), solvent controls (DMSO dilutions) and the reference drugs were included in the tests. The plate was incubated at 37 °C for 24 h, and the OD630nm was measured.

[3] = test system: Escherichia coli ATCC 25922; test: Microdilution antimicrobial assay (CLSI), E. coli; type: cell-based; settings: for Percentage values of microbial growth, E. coli: mean and standard deviation, 24 h; for Microbial growth, E. coli (Table S1): ligand at 100 μM, mean values and standard deviations
Protocol: as §1

[4] = test system: Candida albicans ATCC 10231; test: Microdilution antifungal assay (CLSI), C. albicans; type: cell-based; settings: for Percentage values of microbial growth, C. albicans: mean and standard deviation
Description: Reference strains of Staphylococcus aureus (ATCC 25923), Escherichia coli (ATCC 25922) and Candida albicans (ATCC 10231) were used in this study as model systems. These laboratory strains were purchased from the American Type Culture Collection (ATCC) (Manassas, VA, USA). The cultures were routinely grown on 5% blood agar plates or Sabouraud Dextrose agar plates (Biolife Italiana S.r.l., Milan, Italy) and used freshly in the assays.
The antimicrobial properties of the metal complexes were determined by a previously established microdilution method in agreement with the Clinical and Laboratory Standard Institute (CLSI) guidelines. […] The metal complexes were two-fold serially diluted and tested in the range of 100–0.19 µM. Positive controls (in regular media), negative controls (only compounds), solvent controls (DMSO dilutions) and the reference drugs were included in the tests. The plate was incubated at 37 °C for 24 h, and the OD630nm was measured.

[5] = test system: HEL 299 fibroblasts (ATCC-CCL-137); test: Cell viability and proliferation assay (WST8/CCK-8); type: cell-based, human; settings: for Percentage values of cell viability, HEL 299: compound at 100 μM, mean and standard deviation, relative to untreated controls; for Cell proliferation, HEL 299 (Table S1): ligand at 100 μM, mean values and standard deviations
Protocol: HEL 299 cells, obtained from the American Type Culture Collection (ATCC-CCL-137), were selected to investigate the effect of the metal complexes on non-malignant human fibroblasts. Briefly, cells were cultured in Eagle’s Minimum Essential Medium (EMEM) supplemented with 10% fetal bovine serum (FBS), 100 U/mL penicillin and 100 µg/mL streptomycin at 37 °C with 5% CO2. For the biological assays, cells were grown in 96-well plates at 10^4 cells/well. After 24 h of incubation at 37 °C, the monolayer was treated with 100 µL of medium containing the 2-fold serial dilutions of the compounds in the range 100–0.19 µM. Cell viability was assessed by a colorimetric WST8-based assay according to the manufacturer’s instructions (CCK-8, Cell Counting Kit-8, Dojindo Molecular Technologies, Rockville, MD, USA) by measuring the OD at 450 nm. Data are expressed as the percentage of cell viability relative to the untreated controls. The CC50 was obtained on the corresponding dose–response curves generated as previously reported for IC50 values.

[6] = test system: human red blood cells (hRBCs); test: Hemolytic activity assay; type: cell-based
Protocol: The hemolytic activity of the metal complexes was evaluated as the amount of hemoglobin released by the disruption of human red blood cells (hRBCs). Briefly, a suspension of hRBCs (4% w/v in PBS) was prepared from the peripheral blood of anonymous blood donors available for research purposes. […] Then, the supernatants were spectrophotometrically evaluated at OD405nm. Untreated hRBCs (in PBS) and hRBCs incubated with 1% Triton X-100 were employed as negative and positive controls, respectively. The hemolysis percentage was calculated as [OD405nm (sample) − OD405nm (negative control)]/[OD405nm (positive control) − OD405nm (negative control)] × 100. Minimal hemolytic concentrations (MHCs) were defined as the compound concentration causing 10% hemolysis.

[7] = mean values and 95% Confidence Interval, dose–response
[8] = compound at 100 μM, 1 h at 37 °C
[9] = ligand at 100 μM, mean values and standard deviations

Compound	Percentage values of microbial growth, E. coli ([3]; compound at 100 μM) [%]	Percentage values of microbial growth, C. albicans ([4]; compound at 100 μM, 24 h) [%]	Percentage values of cell viability, HEL 299 [5] [%]	Percentage values of hemolytic activity, hRBCs [6, 8] [%]	Percentage values of microbial growth, S. aureus [2] [%]	Microbial growth, S. aureus (Table S1) [2]	Microbial growth, E. coli (Table S1) [3]	Microbial growth, C. albicans (Table S1) [4, 9]	Cell proliferation, HEL 299 (Table S1) [5]	further results
N.N.[Cl][Pt][Cl] [CP, cisplatin, reference compound]										Binding interaction with plasmid DNA, electrophoresis mobility (in words) ([1]; cisplatin at 500, 100 and 50, 37°C for 2 h, pmaxGFP): cause a shift of the electrophoresis mobility
CCNC(=S)N/N=C/c1cccc(OC)c1[O-].[Cl-].[Cu+2] [Compound 4]	110.5 ± 4.8	15.6 ± 5.5	9.1 ± 1.1	<5						IC50 [2, 7]: 3.5 µM; Antimicrobial activity against S. aureus (in words) [2]: completely inhibited; also recorded: good activity; also recorded: micromolar activity; IC50 [4, 7]: 54.8 µM; Antimicrobial activity against C. albicans (in words) ([4]; up to 100 μM): slightly interfered; CC50 [5, 7]: 1400 nM; Plasmid DNA cleavage in presence of H2O2 (in words) [1]: extensive damage to the plasmid DNA
COc1cccc(/C=N/NC(N)=O)c1[O-].[Cl-].[Cu+2] [Compound 5, [Cu(HL3)Cl]∙0.5H2O∙0.5CH3OH]	55.8 ± 0.5	77.8 ± 2.0	20.3 ± 0.6	<5	83.6 ± 1.4					Antimicrobial activity against S. aureus (in words) [2]: lack of antibacterial activity; Reduction of E. coli growth compared to the untreated cells ([3]; compound at 100 μM): 44.2%; Antimicrobial activity against E. coli (in words) ([3]; up to 100 μM): lack of antibacterial activity; Plasmid DNA cleavage in presence of H2O2 (in words) [1]: degrade plasmid DNA
COc1cc(S(=O)(=O)[O-])cc(/C=N/NC(N)=S)c1[O-].[Cl-].[Cu+2].[Na+] [Compound 8]	104.1 ± 9.3	89.9 ± 5.3	90.4 ± 0.6	<5	106.3 ± 1.6					
CCNC(=S)N/N=C/c1cc(S(=O)(=O)[O-])cc(OC)c1[O-].[Cl-].[Cu+2].[Na+] [Compound 9]	96.6 ± 1.1	91.4 ± 2.5	85.8 ± 1.7	<5	104.8 ± 0.7					
COc1cc(S(=O)(=O)[O-])cc(/C=N/NC(N)=O)c1[O-].[Cl-].[Cu+2].[Na+] [Compound 10, [NaCu(HL6)Cl]]	99.8 ± 1.8	71.6 ± 1.3	63.5 ± 3.8	<5	97.8 ± 1.4					
CCCCCCCC(=O)N/N=C/c1cc(S(=O)(=O)[O-])cc(OC)c1[O-].[Cl-].[Cu+2].[Na+] [Compound 13, [NaCu(HL7)Cl]]	105.2 ± 2.0	81.7 ± 5.4	88.7 ± 0.9	<5	99.8 ± 3.6					Plasmid DNA cleavage in presence of H2O2 (in words) [1]: only exception
CCNC(=S)N/N=C/c1cccc(OC)c1O [Compound H2L2]						96.8 ± 3.5	92.8 ± 3.1	83.3 ± 14.4	97.2 ± 13.2	
OC(Cn1cncn1)(Cn1cncn1)c1ccc(F)cc1F [FCZ, fluconazole, reference compound]										Microbial growth, C. albicans (Table S1) ([4]; fluconazole): 10.0 ± 0.6; Percentage values of microbial growth, C. albicans ([4]; fluconazole at 1.6 μM): 10.0 ± 0.6%
COc1cc(S(=O)(=O)[O-])cc(/C=N/NC(N)=S)c1O.[Na+] [NaH2L4]						99.0 ± 3.5	100.2 ± 1.0	95.6 ± 3.2	85.6 ± 10.2	
CCNC(=S)N/N=C/c1cc(S(=O)(=O)[O-])cc(OC)c1O.[Na+] [NaH2L5]						98.4 ± 3.0	107.4 ± 0.9	95.6 ± 7.5	90.0 ± 4.9	
COc1cc(S(=O)(=O)[O-])cc(/C=N/NC(N)=O)c1O.[Na+] [NaH2L6]						86.5 ± 1.9	97.1 ± 0.7	85.3 ± 1.6	90.3 ± 0.8	
CCCCCCCC(=O)N/N=C/c1cc(S(=O)(=O)[O-])cc(OC)c1O.[Na+] [NaH2L7]						102.2 ± 1.9	101.9 ± 1.3	83.2 ± 2.7	87.6 ± 4.9	
Triton X-100 [reference compound]										Percentage values of hemolytic activity, hRBCs [6]: 100 ± 2.6%

Reference: PMC12155845, “Antimicrobial Activity of Copper(II), Nickel(II) and Zinc(II) Complexes with Semicarbazone and Thiosemicarbazone Ligands Derived from Substituted Salicylaldehydes” (Molecules, 2025)
